Measurements from US12599576B2 (ANTECIP BIOVENTURES II LLC, priority 2022, dated 2026).

How the values were obtained:
[1] = Solubility in water of the drug substance powder
[2] = system: patients with agitation associated with Alzheimer's disease; experiment: Phase 2/3 randomized, double-blind, controlled clinical trial of DM/BU in agitation associated with Alzheimer's disease; format: in vivo, human
Method: A Phase ⅔ randomized, double-blind, controlled, multicenter, U.S. clinical trial was conducted to evaluate the efficacy and safety of DM/BU in patients with agitation associated with Alzheimer's disease. […] An independent data monitoring committee performed an interim futility analysis and recommended no further randomization to the bupropion arm. Subsequently, patients were randomized in a 1:1 ratio to receive DM/BU or placebo. […] The minimum score on the CMAI is 29, corresponding to the total absence of symptoms, with higher scores corresponding to greater agitation. The primary endpoint of the study was the change from baseline in the CMAI total score at Week 5. P-values were calculated based on least square mean estimates.
Inclusion criteria included male or female […], diagnosis of probable Alzheimer's disease, according to the 2011 NIA-AA criteria, diagnosis of agitation, according to the IPA provisional definition of agitation, MMSE score between 10 and 24, an NPI-AA score≥4, and community dwelling. Exclusion criterial included dementia of non-Alzheimer's type and current use of a selective serotonin reuptake inhibitor and/or a serotonin and norepinephrine inhibitor (SSRI/SNRI). Demographics and baseline characteristics are shown in Table 9 of U.S. Pat. No. 10,898,453.

[3] = CYP2D6 inhibited by administering quinidine; cited from earlier work
[4] = Inventor's clinical-trial finding: plasma levels in CYP2D6 poor metabolizers vs other patients after combination of bupropion and dextromethorphan; conditions: combination of bupropion and dextromethorphan administered
[5] = Example 3 / FIG. 1: effect of CYP2D6 poor metabolizer status on pharmacokinetics of the tablet after 8 days of twice daily dosing; conditions: tablet 45 mg dextromethorphan hydrobromide/105 mg bupropion hydrochloride, 8 days twice daily; reference extensive or ultra-extensive CYP2D6 metabolizers; GMR

CC(NC(C)(C)C)C(=O)c1cccc(Cl)c1.Cl (racemic) [Bupropion hydrochloride, (±)-1-(3-chlorophenyl)-2-[(1,1-dimethylethyl)amino]-1-propanone hydrochloride]
solubility in water [1]: highly soluble in water

Br.COc1ccc2c(c1)[C@]13CCCC[C@@H]1[C@H](C2)N(C)CC3 [Dextromethorphan hydrobromide, morphinan, 3-methoxy-17-methyl-, (9α, 13α, 14α), hydrobromide monohydrate]
solubility in water [1]: sparingly soluble in water

CC(NC(C)(C)C)C(=O)c1cccc(Cl)c1 (centres unmarked) [bupropion]
mean reduction from baseline in CMAI total score ([2]; Week 5 (primary endpoint), placebo 11.5, DM/BU vs placebo p=0.010): 10.0 points | adverse event: diarrhea ([2]; both, human, in vivo, 5 weeks): 6.1% | adverse event: dizziness ([2]; both, human, in vivo, 5 weeks): 10.2% | adverse event: somnolence ([2]; both, human, in vivo, 5 weeks): 4.1% | rate of discontinuation due to adverse events ([2]; both, human, in vivo, 5 weeks): 2.0% | serious adverse events reported, patients ([2]; both, human, in vivo, 5 weeks): 8.2% | deaths in arm ([2]; one death in the placebo arm): one

COc1ccc2c(c1)[C@]13CCCC[C@@H]1[C@H](C2)N(C)CC3 [dextromethorphan]
AUC0-12 of dextromethorphan higher for CYP2D6 poor metabolizers compared to non-poor metabolizers [3]: about 46% | Cmax of dextromethorphan higher for poor metabolizers compared to non-poor metabolizers [3]: about 40% | Cmax and AUC of dextromethorphan in poor metabolizers vs patients who are not poor metabolizers [4]: significantly higher | increase in dextromethorphan AUC0-12 for CYP2D6 poor metabolizers [5]: 3.40 fold | increase in dextromethorphan Cmax for CYP2D6 poor metabolizers [5]: 3.00 fold
